Data taken from US11357779B2 (G1 Therapeutics, Inc., priority 2018, dated 2022).
Entries after “also recorded” stand apart in the source; their conditions may differ.

Legend:
[1] = Crystallization and slurry experiments, morphic forms of Compound II (XRPD, characterization); assay type: physicochemical; settings: morphic forms (XRPD patterns) of Compound II
Description: Eleven unique XRPD patterns (Form A-Form K) of Compound II were obtained from crystallization and slurry experiments using various solvents.
Forms A, B, and D were evaluated as solid state forms.

[2] = TG and TG-IR analysis of Form B; assay type: physicochemical; settings: TG-IR
Description: The TG analyses were performed using a TA Instrument Q5000 thermogravimetric analyzer. Temperature calibration was performed using nickel and Alumel. The sample was placed in a platinum pan and inserted into the TG furnace. The furnace was heated under a nitrogen purge to 350° C. at a rate of 10° C./min.
Thermogravimetric infrared (TG-IR) analysis was performed on a TA Instruments Q5000 IR thermogravimetric (TG) analyzer interfaced to a Magna-IR 560@ Fourier transform infrared (FT-IR) spectrophotometer (Thermo Nicolet) equipped with an Ever-Glo mid/far IR source, a potassium bromide (KBr) beamsplitter, and a mercury cadmium telluride (MCT-A) detector. The FT-IR wavelength verification was performed using polystyrene, and the TG calibration standards were nickel and Alumel™. The sample was placed in a platinum sample pan and the pan was inserted into the TG furnace. The TG instrument was started first, immediately followed by the FT-IR instrument. The TG instrument was operated under a flow of helium at 90 and 10 cc/minute for the purge and balance, respectively. The furnace was heated under helium at a rate of 20° C./minute to a final temperature of approximately 140° C. IR spectra were collected approximately every 32 seconds for approximately 7.5 minutes. Each IR spectrum represents 32 co-added scans collected at a spectral resolution of 4 cm-1. Volatiles were identified from a search of the High Resolution Nicolet Vapor Phase spectral library.
A TG-IR experiment was carried out on pure Form B (Sample 11 from the small-scale slurry experiments) at […] in an effort to investigate the stability of Form B at elevated temperature by monitoring potential release of hydrogen chloride.

[3] = Dynamic vapor sorption (moisture sorption) experiment; settings: for % wt change at 60% RH / % wt change at 90% RH: DVS; for stability in the moisture sorption experiment (XRPD of dried sample): after DVS; for stability in the moisture sorption experiment (XRPD of dried sample) / XRPD (post DVS): dried at 60° C. and 0% RH; for XRPD (post DVS): after moisture sorption experiment
Description: Dynamic vapor sorption experiments were performed on Form A, Form B, and Form D. Table 103 provides the results of the DVS experiment.

[4] = Stability study under thermal stress, 60° C. for 7 days; assay type: physicochemical
Description: Forms A, B, and D were stored in an oven maintained at 60° C. for 7 days.

[5] = Vacuum drying experiments of Form B; assay type: physicochemical; settings: for Weight Loss (calculated by weight before and after drying): Vacuum oven
[6] = Vacuum drying experiments of Form B; assay type: physicochemical; settings: for Weight Loss (calculated by weight before and after drying): Vacuum oven; for XRPD Result: after Vacuum oven
From the text: Weighted amounts of impure Form B and pure Form B samples from the previous experiments (Samples 14, 8, 11, 19, 21, and 23) were vacuum dried at ambient or elevated temperatures using various vacuum levels from approximately 14 in Hg up 27-28 in Hg. The resulting materials were weighted out prior to submission for XRPD analysis.
The XRPD pattern of the resulting material was consistent with Form B, however, tiny shifting in a few peak positions in the XRPD pattern was observed (FIG. 26).

[7] = Solubility estimate by aliquot addition with visual observation; assay type: physicochemical
Description: Solubility estimates of impure Form B were attempted in various predominantly HCl acidic aqueous acetone solvent mixtures using an aliquot addition method that involved visual observation. Aliquots of various solvents or diluent/organic solvent mixtures were added to measured amounts of impure Form B with agitation (typically sonication) at ambient temperature until complete dissolution was achieved, as judged by visual observation. Solubilities were calculated based on the total solvent used to give a solution; actual solubilities may be greater because of the volume of solvent portions utilized or a slow rate of dissolution. […] If dissolution occurred at the first aliquot, the value was reported as “>”. Due to the haziness of the obtained samples, effective solubility estimates were difficult to discern.

[8] = 0.1M HCl:acetone 20:80, ambient
[9] = 0.5M HCl:acetone 10:90, ambient
[10] = 0.5M HCl:acetone 20:80, ambient
[11] = 1.0M HCl:acetone 75:25, ambient

Compound: CC(C)N1CCN(c2ccc(Nc3ncc4cc5n(c4n3)C3(CCCCC3)CNC5=O)nc2)CC1.Cl.Cl [A]
- Possible Form [1]: Hydrate

Compound: CC(C)N1CCN(c2ccc(Nc3ncc4cc5n(c4n3)C3(CCCCC3)CNC5=O)nc2)CC1.Cl.Cl [B]
- Possible Form [1]: Hydrate

Compound: CC(C)N1CCN(c2ccc(Nc3ncc4cc5n(c4n3)C3(CCCCC3)CNC5=O)nc2)CC1.Cl.Cl [C]
- Possible Form [1]: EtOAc

Compound: CC(C)N1CCN(c2ccc(Nc3ncc4cc5n(c4n3)C3(CCCCC3)CNC5=O)nc2)CC1.Cl.Cl [Compound II, Form B]
- Weight (%) ([2]; 0.38 min, 36.60 ° C.): 99.93%
- Weight (%) ([2]; 0.55 min, 40.20 ° C.): 99.87%
- Weight (%) ([2]; 0.73 min, 43.80 ° C.): 99.77%
- Weight (%) ([2]; 0.90 min, 47.40 ° C.): 99.63%
- Weight (%) ([2]; 1.08 min, 51.00 ° C.): 99.46%
- Weight (%) ([2]; 1.25 min, 54.60 ° C.): 99.26%
- Weight (%) ([2]; 1.43 min, 58.20 ° C.): 99.03%
- Weight (%) ([2]; 1.61 min, 61.80 ° C.): 98.79%
- Weight (%) ([2]; 1.78 min, 65.40 ° C.): 98.52%
- Weight (%) ([2]; 1.96 min, 69.00 ° C.): 98.22%
- Weight (%) ([2]; 2.14 min, 72.60 ° C.): 97.86%
- Weight (%) ([2]; 2.32 min, 76.20 ° C.): 97.44%
- Weight (%) ([2]; 2.50 min, 79.80 ° C.): 96.95%
- Weight (%) ([2]; 2.68 min, 83.40 ° C.): 96.45%
- Weight (%) ([2]; 2.86 min, 87.00 ° C.): 95.97%
- Weight (%) ([2]; 3.04 min, 90.60 ° C.): 95.57%
- Weight (%) ([2]; 3.23 min, 94.20 ° C.): 95.23%
- Weight (%) ([2]; 3.41 min, 97.80 ° C.): 94.95%
- Weight (%) ([2]; 3.59 min, 101.40 ° C.): 94.71%
- Weight (%) ([2]; 3.77 min, 105.00 ° C.): 94.50%
- Weight (%) ([2]; 3.95 min, 108.60 ° C.): 94.32%
- Weight (%) ([2]; 4.13 min, 112.20 ° C.): 94.18%
- Weight (%) ([2]; 4.31 min, 115.80 ° C.): 94.06%
- Weight (%) ([2]; 4.68 min, 123.00 ° C.): 93.86%
- Weight (%) ([2]; 4.86 min, 126.60 ° C.): 93.78%
- Weight (%) ([2]; 5.04 min, 130.20 ° C.): 93.71%
- Weight (%) ([2]; 5.22 min, 133.80 ° C.): 93.65%

Compound: CC(C)N1CCN(c2ccc(Nc3ncc4cc5n(c4n3)C3(CCCCC3)CNC5=O)nc2)CC1.Cl.Cl [D]
- Possible Form [1]: Hydrate

Compound: CC(C)N1CCN(c2ccc(Nc3ncc4cc5n(c4n3)C3(CCCCC3)CNC5=O)nc2)CC1.Cl.Cl [E]
- Possible Form [1]: Acetone

Compound: CC(C)N1CCN(c2ccc(Nc3ncc4cc5n(c4n3)C3(CCCCC3)CNC5=O)nc2)CC1.Cl.Cl [F]
- Possible Form [1]: Unstable

Compound: CC(C)N1CCN(c2ccc(Nc3ncc4cc5n(c4n3)C3(CCCCC3)CNC5=O)nc2)CC1.Cl.Cl [Form A]
- moisture adsorbed ([3]; 60% RH): 14.9 wt %
- moisture adsorbed ([3]; 90% RH): 15.8 wt %
- % wt change at 60% RH ([3]; 60% RH): 14.9 % wt
- % wt change at 90% RH ([3]; 90% RH): 15.8 % wt
- stability in the moisture sorption experiment (XRPD of dried sample) [3]: unstable; also recorded: not stable
- XRPD (post DVS) [3]: Form K
- XRPD pattern after thermal stress [4]: A new pattern was found; also recorded: converted to a new Form

Compound: CC(C)N1CCN(c2ccc(Nc3ncc4cc5n(c4n3)C3(CCCCC3)CNC5=O)nc2)CC1.Cl.Cl [Form C]
- XRPD pattern after thermal stress [4]: remained unchanged

Compound: CC(C)N1CCN(c2ccc(Nc3ncc4cc5n(c4n3)C3(CCCCC3)CNC5=O)nc2)CC1.Cl.Cl [Form D]
- moisture adsorbed ([3]; 60% RH): 4.4 wt %
- % wt change at 60% RH ([3]; 60% RH): 4.4 % wt
- % wt change at 90% RH ([3]; 90% RH): 17.0 % wt
- stability in the moisture sorption experiment (XRPD of dried sample) [3]: unstable; also recorded: not stable
- XRPD (post DVS) [3]: Form K
- XRPD pattern after thermal stress [4]: No change in the XRPD pattern

Compound: CC(C)N1CCN(c2ccc(Nc3ncc4cc5n(c4n3)C3(CCCCC3)CNC5=O)nc2)CC1.Cl.Cl [G]
- Possible Form [1]: Anhydrate

Compound: CC(C)N1CCN(c2ccc(Nc3ncc4cc5n(c4n3)C3(CCCCC3)CNC5=O)nc2)CC1.Cl.Cl [H]
- Possible Form [1]: n-PrOH

Compound: CC(C)N1CCN(c2ccc(Nc3ncc4cc5n(c4n3)C3(CCCCC3)CNC5=O)nc2)CC1.Cl.Cl [Sample 8]
- Weight Loss (calculated by weight before and after drying) ([5]; ~40° C., 15 h (~29.5 in Hg)): Weight loss: 7.4%
- XRPD Result ([5]; after Vacuum oven, ~40° C., 15 h (~29.5 in Hg)): New crystalline

Compound: CC(C)N1CCN(c2ccc(Nc3ncc4cc5n(c4n3)C3(CCCCC3)CNC5=O)nc2)CC1.Cl.Cl [Sample 11]
- Weight Loss (calculated by weight before and after drying) ([6]; 22° C., 0.5 h (~14 in Hg)): Weight loss: 1.8%
- XRPD Result ([6]; 22° C., 0.5 h (~14 in Hg)): Form B tiny peak

Compound: CC(C)N1CCN(c2ccc(Nc3ncc4cc5n(c4n3)C3(CCCCC3)CNC5=O)nc2)CC1.Cl.Cl [Sample 14]
- Weight Loss (calculated by weight before and after drying) ([5]; 23° C., 2 h (~29.5 in Hg)): Weight loss: 6.8%
- Weight Loss (calculated by weight before and after drying) ([5]; ~40° C., 15 h (~29.5 in Hg)): Weight loss: 7.5%

Compound: CC(C)N1CCN(c2ccc(Nc3ncc4cc5n(c4n3)C3(CCCCC3)CNC5=O)nc2)CC1.Cl.Cl [Sample 19]
- Weight Loss (calculated by weight before and after drying) ([6]; RT, 1.0 h (~27-28 in Hg)): Weight loss: 9.7%
- XRPD Result ([6]; RT, 1.0 h (~27-28 in Hg)): Form B + broad

Compound: CC(C)N1CCN(c2ccc(Nc3ncc4cc5n(c4n3)C3(CCCCC3)CNC5=O)nc2)CC1.Cl.Cl [Sample 21]
- Weight Loss (calculated by weight before and after drying) ([6]; 22° C., 0.5 h (~28 in Hg)): Weight loss: 30.6%

Compound: CC(C)N1CCN(c2ccc(Nc3ncc4cc5n(c4n3)C3(CCCCC3)CNC5=O)nc2)CC1.Cl.Cl [Sample 23]
- Weight Loss (calculated by weight before and after drying) ([6]; 22° C., 1.0 h (~27-28 in Hg)): Weight loss: 4.7%
- XRPD Result ([6]; 22° C., 1.0 h (~27-28 in Hg)): Most likely Form B

Compound: CC(C)N1CCN(c2ccc(Nc3ncc4cc5n(c4n3)C3(CCCCC3)CNC5=O)nc2)CC1.Cl.Cl [impure Form B]
- Observation [7, 8]: solids remained
- Solubility [7, 8]: <1000 µg/mL
- Observation [7, 9]: solids remained
- Solubility [7, 9]: <1000 µg/mL
- Observation [7, 10]: solids remained
- Solubility [7, 10]: <1000 µg/mL
- Observation ([7]; 1M HCl:acetone 5:95, ambient): solids remained
- Solubility ([7]; 1M HCl:acetone 5:95, ambient): <1000 µg/mL
- Observation ([7]; 1M HCl:acetone 10:90, ambient): solids remained
- Solubility ([7]; 1M HCl:acetone 10:90, ambient): <1000 µg/mL
- Observation ([7]; 1M HCl:acetone 20:80, ambient): solids remained
- Solubility ([7]; 1M HCl:acetone 20:80, ambient): <1000 µg/mL
- Observation ([7]; 1M HCl:acetone 33:67, ambient): hazy solution
- Solubility ([7]; 1M HCl:acetone 33:67, ambient): 2000 µg/mL
- Observation ([7]; 1M HCl:acetone 50:50, ambient): hazy solution
- Solubility ([7]; 1M HCl:acetone 50:50, ambient): 4000 µg/mL
- Observation ([7]; 1M HCl:acetone 60:40, ambient): hazy solution
- Solubility ([7]; 1M HCl:acetone 60:40, ambient): 4000 µg/mL
- Observation ([7]; 1M HCl:acetone 67:33, ambient): hazy solution
- Solubility ([7]; 1M HCl:acetone 67:33, ambient): 6000 µg/mL
- Observation [7, 11]: hazy solution
- Solubility [7, 11]: 7000 µg/mL
- Observation ([7]; 2.0M HCl, ambient): hazy solution
- Solubility ([7]; 2.0M HCl, ambient): 4000 µg/mL
- Observation ([7]; 5.0M HCl, ambient): hazy solution
- Solubility ([7]; 5.0M HCl, ambient): 3000 µg/mL
- Observation ([7]; 5.0M HCl:water 1:2, ambient): clear solution
- Solubility ([7]; 5.0M HCl:water 1:2, ambient): 7000 µg/mL
- Solubility ([7]; HCl acidic aqueous acetone solvent mixtures, ambient temperature, visual estimate): 3000 to 7000 µg/mL
- Observation ([7]; Water, ambient): solids remained
- Solubility ([7]; Water, ambient): <7000 µg/mL
- Observation ([7]; Water:acetone 1:2, ambient): hazy solution
- Solubility ([7]; Water:acetone 1:2, ambient): 3000 µg/mL
- Observation ([7]; Water:acetone 3:1, ambient): solids remained
- Solubility ([7]; Water:acetone 3:1, ambient): <3000 µg/mL
